# ChEMBL document CHEMBL1123796, “New antitumor agents containing the anthracene nucleus” (1987)
# How the values were obtained:
# Format in all cases: functional
# Mus musculus [1] = assay: Tested for skin toxicity in BALB/c mice at a significant dose of 0.75 mg/kg administered intraintradermally and involved concentric circular areas of ulceration
# Mus musculus [2] = assay: Tested for percent average weekly weight change in mice at a significant dose of 30 mg/kg administered intraperitoneally; conditions: route intraperitoneal
# L1210 [3] = assay: Antileukemic activity against L-1210 cells in mice at a dose of 30 mg/kg administered intraperitoneally after 5 day treatment; conditions: Mus musculus, L1210, ip, 120 h, route intraperitoneal
# P388 [4] = assay: Antileukemic activity against P-388 in mice at a dose of 30 mg/kg administered intraperitoneally after 5 day treatment; conditions: Mus musculus, P388, ip, 120 h, route intraperitoneal
# Mus musculus [5] = assay: Tested for percent average weekly weight change in mice at a significant dose of 90 mg/kg administered intraperitoneally after 5 days of treatment; conditions: route intraperitoneal
# RPMI-8226 [6] = assay: Effect on DNA synthesis was determined by incorporation of radioligand into 8226 human myeloma cells at a concentration of 0.3 ug/mL (*: >50% cell kill)
# P388 [7] = assay: Antileukemic activity against P-388 in mice at a dose of 90 mg/kg administered intraperitoneally after 1 day treatment; conditions: Mus musculus, P388, ip, 24 h, route intraperitoneal
# Mus musculus [8] = assay: Tested for high-dose toxicity in mice at a significant dose of 60 mg/kg administered intraperitoneally after 5 days of treatment; conditions: route intraperitoneal
# Mus musculus [9] = assay: Tested for skin toxicity in BALB/c mice at a significant dose of 2.00 mg/kg administered intraintradermally and involved concentric circular areas of induration.
# L1210 [10] = assay: Effect on RNA synthesis was determined by incorporation of radioligand into L1210 murine leukemia at a concentration of 0.01 ug/mL; conditions: Mus musculus
# Mus musculus [11] = assay: Tested for high-dose toxicity in mice at a significant dose of 70 mg/kg administered intraperitoneally after 5 days of treatment; conditions: route intraperitoneal
# Mus musculus [12] = assay: Tested for high-dose toxicity in mice at a significant dose of 80 mg/kg administered intraperitoneally after 5 days of treatment; conditions: route intraperitoneal
# Mus musculus [13] = assay: Tested for skin toxicity in BALB/c mice at a significant dose of 2.5 mg/kg administered intraintradermally and involved concentric circular areas of ulceration
# Mus musculus [14] = assay: Tested for skin toxicity in BALB/c mice at a significant dose of 0.75 mg/kg administered intraintradermally and involved concentric circular areas of erythema
# Mus musculus [15] = assay: Tested for percent average weekly weight change in mice at a significant dose of 90 mg/kg administered intraperitoneally after 1 days of treatment; conditions: route intraperitoneal
# Mus musculus [16] = assay: Tested for high-dose toxicity in mice at a significant dose of 52.5 mg/kg administered intraperitoneally after 5 days of treatment; conditions: route intraperitoneal
# RPMI-8226 [17] = assay: Effect on DNA synthesis was determined by incorporation of radioligand into 8226 human myeloma cells at a concentration of 10 ug/mL (*: >1 log cell kill)
# P388 [18] = assay: Antileukemic activity against P-388 in mice at a dose of 70 mg/kg administered intraperitoneally after 5 day treatment; conditions: Mus musculus, P388, ip, 120 h, route intraperitoneal
# [19] = In vitro inhibition of human UACC-66 ovarian tumor cell line growth.; conditions: read-out: ID50 (the source's name)
# L1210 [20] = assay: Effect on protein synthesis was determined by incorporation of radioligand into L1210 murine leukemia at a concentration of 10 ug/mL (*: >1 log cell kill); conditions: Mus musculus
# Mus musculus [21] = assay: Tested for high-dose toxicity in mice at a significant dose of 100 mg/kg administered intraperitoneally after 1 days of treatment; conditions: route intraperitoneal
# L1210 [22] = assay: Effect on protein synthesis was determined by incorporation of radioligand into L1210 murine leukemia at a concentration of 1 ug/mL. (*: >1 log cell kill); conditions: Mus musculus
# Mus musculus [23] = assay: Tested for skin toxicity in BALB/c mice at a significant dose of 0.25 mg/kg administered intraintradermally and involved concentric circular areas of erythema
# L1210 [24] = assay: Effect on RNA synthesis was determined by incorporation of radioligand into L1210 murine leukemia at a concentration of 1 ug/mL. (*: >1 log cell kill); conditions: Mus musculus
# RPMI-8226 [25] = assay: Effect on DNA synthesis was determined by incorporation of radioligand into 8226 human myeloma cells at a concentration of 1 ug/mL. (*: >1 log cell kill)
# L1210 [26] = assay: Antileukemic activity against L-1210 cells in mice at a dose of 60 mg/kg administered intraperitoneally after 1 day treatment; conditions: Mus musculus, L1210, ip, 24 h, route intraperitoneal
# L1210 [27] = assay: Antileukemic activity against L-1210 cells in mice at a dose of 70 mg/kg administered intraperitoneally after 1 day treatment; conditions: Mus musculus, L1210, ip, 24 h, route intraperitoneal
# L1210 [28] = assay: Effect on RNA synthesis was determined by incorporation of radioligand into L1210 murine leukemia at a concentration of 0.5 ug/mL. (*: >1 log cell kill); conditions: Mus musculus
# P388 [29] = assay: Antileukemic activity against P-388 in mice at a dose of 60 mg/kg administered intraperitoneally after 5 day treatment; conditions: Mus musculus, P388, ip, 120 h, route intraperitoneal
# P388 [30] = assay: Antileukemic activity against P-388 in mice at a dose of 100 mg/kg administered intraperitoneally after 1 day treatment; conditions: Mus musculus, P388, ip, 24 h, route intraperitoneal
# Mus musculus [31] = assay: Tested for skin toxicity in BALB/c mice at a significant dose of 2.5 mg/kg administered intraintradermally and involved concentric circular areas of erythema
# Mus musculus [32] = assay: Tested for high-dose toxicity in mice at a significant dose of 80 mg/kg administered intraperitoneally after 1 days of treatment; conditions: route intraperitoneal
# RPMI-8226 [33] = assay: In vitro inhibition of human 8226 myeloma tumor cell line growth.; conditions: read-out: ID50 (the source's name)
# [34] = Tested in vitro for inhibitory activity of human tumor cell growth against HEC 1A endometrial tumor, by using clonogenic assays.; conditions: read-out: ID50 (the source's name)
# Mus musculus [35] = assay: Tested for percent average weekly weight change in mice at a significant dose of 60 mg/kg administered intraperitoneally after 5 days of treatment; conditions: route intraperitoneal
# Mus musculus [36] = assay: Tested for percent average weekly weight change in mice at a significant dose of 70 mg/kg administered intraperitoneally after 5 days of treatment; conditions: route intraperitoneal
# RPMI-8226 [37] = assay: Effect on RNA synthesis was determined by incorporation of radioligand into 8226 human myeloma cells at a concentration of 0.01 ug/mL
# L1210 [38] = assay: Antileukemic activity against L-1210 cells in mice at a dose of 37.5 mg/kg administered intraperitoneally after 5 day treatment; conditions: Mus musculus, L1210, ip, 120 h, route intraperitoneal
# L1210 [39] = assay: Antileukemic activity against L-1210 cells in mice at a dose of 70 mg/kg administered intraperitoneally after 5 day treatment; conditions: Mus musculus, L1210, ip, 120 h, route intraperitoneal
# L1210 [40] = assay: Effect on RNA synthesis was determined by incorporation of radioligand into L1210 murine leukemia at a concentration of 10 ug/mL (*: >1 log cell kill); conditions: Mus musculus
# Mus musculus [41] = assay: Tested for high-dose toxicity in mice at a significant dose of 45 mg/kg administered intraperitoneally after 5 days of treatment; conditions: route intraperitoneal
# L1210 [42] = assay: Effect on RNA synthesis was determined by incorporation of radioligand into L1210 murine leukemia at a concentration of 0.3 ug/mL (*: >50% cell kill); conditions: Mus musculus
smiles,measurement,setting,value
CN(C)CCNCc1c2ccccc2c(CNCCN(C)C)c2ccccc12,Extent of skin lesions,Mus musculus [1],1 cm**2
same,Average weekly weight change,Mus musculus [2],-3%
same,ILS at 30 mg/kg,L1210 [3],5%
same,ILS at 30 mg/kg,P388 [4],0%
same,Average weekly weight change,Mus musculus [5],-11%
same,inhibition at 0.3 µg/mL,RPMI-8226 [6],8.4%
same,ILS at 90 mg/kg,P388 [7],-10%
same,Lethality,Mus musculus [8],0%
same,Extent of skin lesions,Mus musculus [9],5.3 cm**2
same,inhibition at 0.01 µg/mL,L1210 [10],0%
same,Lethality,Mus musculus [11],10%
same,Median day of death,Mus musculus [11],0
same,Lethality,Mus musculus [12],20%
same,Median day of death,Mus musculus [12],4
same,Extent of skin lesions,Mus musculus [13],3.8 cm**2
same,Extent of skin lesions,Mus musculus [14],1.3 cm**2
same,Average weekly weight change,Mus musculus [15],-5%
same,Lethality,Mus musculus [16],100%
same,Median day of death,Mus musculus [16],4
same,inhibition at 10 µg/mL,RPMI-8226 [17],82.2%
same,ILS at 70 mg/kg,P388 [18],10%
same,IC50,[19],1600 nM
same,inhibition at 10 µg/mL,L1210 [20],87.3%
same,Lethality,Mus musculus [21],60%
same,Median day of death,Mus musculus [21],0
same,inhibition at 1 µg/mL,L1210 [22],31.2%
same,Extent of skin lesions,Mus musculus [23],0.3 cm**2
same,inhibition at 1 µg/mL,L1210 [24],6.9%
same,inhibition at 1 µg/mL,RPMI-8226 [25],21.1%
same,ILS at 60 mg/kg,L1210 [26],17%
same,ILS at 70 mg/kg,L1210 [27],40%
same,inhibition at 0.5 µg/mL,L1210 [28],7.2%
same,ILS at 60 mg/kg,P388 [29],25%
same,ILS at 100 mg/kg,P388 [30],-33%
same,Extent of skin lesions,Mus musculus [31],5 cm**2
same,Lethality,Mus musculus [32],10%
same,Median day of death,Mus musculus [32],12
same,IC50,RPMI-8226 [33],160 nM
same,IC50,[34],360 nM
same,Average weekly weight change,Mus musculus [35],0%
same,Average weekly weight change,Mus musculus [36],-7%
same,inhibition at 0.01 µg/mL,RPMI-8226 [37],0%
same,ILS at 37.5 mg/kg,L1210 [38],11%
same,ILS at 70 mg/kg,L1210 [39],30%
same,inhibition at 10 µg/mL,L1210 [40],96.3%
same,Lethality,Mus musculus [41],30%
same,Median day of death,Mus musculus [41],2
same,inhibition at 0.3 µg/mL,L1210 [42],0%
